Assays:
cytokine release = experiment: Panel of standard cell-based in vitro assays evaluating cytokine release inhibition; settings: prodrugs compared to the steroid drugs (Examples 27 and 62, respectively)
Experimental: The selected compounds of the invention were tested in a panel of standard, cell-based in vitro assays evaluating the cytokine release inhibition and thus the anti-inflammatory activity of a test article. Several potent steroid analogs were identified, namely compounds described in Examples 23, 27, 43, 59 and 62. […] Therefore by masking the pharmacological properties of a respective steroid the mutual prodrug mitigates the oropharyngeal side effects and confines the antiinflammatory activity of a steroid to the endobronchial space, where the lung enzymes (specifically alkaline phosphatase) release the pharmacologically active steroid (see Examples 141-143).

[1] = Control solution without enzyme (pH 7.4 buffer, 37° C.); assay type: physicochemical; settings: 25 to 50 hours, LCMS
TNF-α = TNF-α secretion (h) (PBMC); assay type: cell-based, human; settings: Homo sapiens, 24 h, read-out: TNF-α secretion IC50
alkaline phosphatase = experiment: Conversion of mutual prodrugs after exposure to alkaline phosphatase (ALP experiment); settings: for course in the reaction solution (with enzyme): alkaline phosphatase ~600 ng/μl, pH 7.4, 37° C., LCMS; for Prodrug 16 Concentration: mutual prodrug 16 + alkaline phosphatase; for Prodrug 17 Concentration: mutual prodrug 17 + alkaline phosphatase;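 as to all read-outs here: mutual prodrug and its released products quantified by LCMS over time in buffer with alkaline phosphatase, compared against enzyme-free control buffer, incubations running 25–50 hours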
Experimental: Reaction and control solutions were prepared by adding a 500 μL aliquot of a ˜200 ng/μl solution in 1:1 acetonitrile/water of and the compound 16 (or alternatively 17) to 500 μl of a pH 7.4 buffer solution, containing 5 mM tris(hydroxymethyl)aminomethane, 1 mM ZnCl2, 1 mM MgCl2. For the reaction solutions, the buffer also contained approximately 600 ng/μl of alkaline phosphatase (Sigma-Aldrich) whereas the control buffer solutions contained no enzyme. The reaction and control solutions were incubated at 37° C. for 25 to 50 hours. The solutions were analyzed periodically for the respective mutual prodrug and reaction products by LCMS.
The concentration of the alkaline phosphatase in the reaction buffer was ˜600 ng/μL (the enzyme activity of the solution was not determined).
The concentration of the alkaline phosphatase in the buffer added to the stock solution was ˜600 ng/μl (the enzyme activity of the solution was not determined).

[2] = system: splenic lymphocytes isolated from C57BL/6 mice and CBA mice; experiment: Immunosuppression ([3H]TMD incorporation in mouse splenic lymphocytes); assay type: cell-based; settings: Mus musculus, Splenic lymphocyte; read-out: Immunosuppresion IC50

For `C[C@]12C=CC(=O)C=C1CC[C@H]1[C@@H]3C[C@H]4O[C@@H](C5CCCCC5)O[C@@]4(C(=O)CN4CC[N+](C)(Cc5ccc(C(O)CNCCCCCCOCCCCc6ccccc6)cc5OP(=O)(O)O)CC4)[C@@]3(C)C[C@H](O)[C@@]12F` (stereo partly drawn) [Example 107, Salmeterol-phosphate-16,17-[(Cyclohexylmethylene)bis(oxy)]-9-fluoro-11-hydroxy-21-(4-methylpiperazinium)-pregna-1,4-diene-3,20-dione[11β,16α(R)]], the “anti-inflammatory activity (cytokine release inhibition), assessment in words” value (cytokine release) was “less active or inactive”, the “compounds detected in the control solution (without enzyme)” value [1] was “Only the mutual prodrug 16 was detected” and the IC50 (TNF-α) was 810 nM. For the same molecule, the “course in the reaction solution (with enzyme)” value (alkaline phosphatase) was “disappearance of the mutual prodrug 16”, the “Prodrug 16 Concentration” value (alkaline phosphatase; 0.00 Hours @ 37° C.) was 91.0 nmol/mL and the “Prodrug 16 Concentration” value (alkaline phosphatase; 0.59 Hours @ 37° C.) was 87.7 nmol/mL. For the same molecule, the “Prodrug 16 Concentration” value (alkaline phosphatase; 1.19 Hours @ 37° C.) was 78.6 nmol/mL, the “Prodrug 16 Concentration” value (alkaline phosphatase; 2.96 Hours @ 37° C.) was 67.8 nmol/mL and the “Prodrug 16 Concentration” value (alkaline phosphatase; 3.56 Hours @ 37° C.) was 62.3 nmol/mL. The “Prodrug 16 Concentration” value (alkaline phosphatase; 4.15 Hours @ 37° C.) was 61.6 nmol/mL, the “Prodrug 16 Concentration” value (alkaline phosphatase; 10.67 Hours @ 37° C.) was 43.1 nmol/mL and the “Prodrug 16 Concentration” value (alkaline phosphatase; 15.41 Hours @ 37° C.) was 36.7 nmol/mL. For the same molecule, the “Prodrug 16 Concentration” value (alkaline phosphatase; 19.56 Hours @ 37° C.) was 33.1 nmol/mL, the “Prodrug 16 Concentration” value (alkaline phosphatase; 24.30 Hours @ 37° C.) was 29.3 nmol/mL and the “Prodrug 16 Concentration” value (alkaline phosphatase; 30.82 Hours @ 37° C.) was 24.8 nmol/mL. The “Prodrug 16 Concentration” value (alkaline phosphatase; 34.97 Hours @ 37° C.) was 23.0 nmol/mL and the IC50 [2] was 80 nM.
In the case of `C[C@]12C=CC(=O)C=C1CCC1C3C[C@H]4OC(c5ccc[n+](Cc6ccc(C(O)CNCCCCCCOCCCCc7ccccc7)cc6OP(=O)(O)O)c5)O[C@@]4(C(=O)CO)[C@@]3(C)C[C@H](O)[C@@]12F` (stereo partly drawn) [Example 133], the “anti-inflammatory activity (cytokine release inhibition), assessment in words” value (cytokine release) is reported as “less active or inactive”, the “compounds detected in the control solution (without enzyme)” value [1] is reported as “Only the mutual prodrug 17 was detected” and the IC50 (TNF-α) is reported as over 1000 nM. The “course in the reaction solution (with enzyme)” value (alkaline phosphatase) was “disappearance of the mutual prodrug”, the “Prodrug 17 Concentration” value (alkaline phosphatase; 0.00 Hours @ 37° C.) was 214.4 nmol/mL and the “Prodrug 17 Concentration” value (alkaline phosphatase; 0.53 Hours @ 37° C.) was 112.6 nmol/mL. For the same molecule, the “Prodrug 17 Concentration” value (alkaline phosphatase; 1.05 Hours @ 37° C.) was 44.9 nmol/mL, the “Prodrug 17 Concentration” value (alkaline phosphatase; 2.10 Hours @ 37° C.) was 9.8 nmol/mL and the “Prodrug 17 Concentration” value (alkaline phosphatase; 3.16 Hours @ 37° C.) was 4.2 nmol/mL. For the same molecule, the “Prodrug 17 Concentration” value (alkaline phosphatase; 4.21 Hours @ 37° C.) was 3.7 nmol/mL, the “Prodrug 17 Concentration” value (alkaline phosphatase; 10.52 Hours @ 37° C.) was 0.0 nmol/mL and the “Prodrug 17 Concentration” value (alkaline phosphatase; 19.99 Hours @ 37° C.) was 0.0 nmol/mL. The “Prodrug 17 Concentration” value (alkaline phosphatase; 29.46 Hours @ 37° C.) was 0.0 nmol/mL, the “Prodrug 17 Concentration” value (alkaline phosphatase; 39.99 Hours @ 37° C.) was 0.0 nmol/mL and the “Prodrug 17 Concentration” value (alkaline phosphatase; 49.46 Hours @ 37° C.) was 0.0 nmol/mL. It also gave an IC50 [2] of 180 nM.

From patent US20100209508A1, “Substituted Phenylphosphates as Mutual Prodrugs of Steroids and ß-Agonists for the Treatment of Title Pulmonary Inflammation and Bronchoconstriction” (CORUS PHARMA, INC., priority 2005, published 2010)
